Reference: patent US9133207B2, “Tetrandrine derivatives with substituted 5-carbon, preparation method and use thereof” (Hangzhou Bensheng Pharmaceutical Co., Ltd., priority 2011, dated 2015)
In brackets after ≈: the same amount, converted by molar mass.

Experiments:
[1] = test system: RPMI8226 (multiple myeloma); test: Multiple myeloma cell growth inhibition, MTT, 72 h (Example 6); type: cell-based, human; details: Homo sapiens, RPMI-8226; 72 h, MTT, RPMI8226
Procedure: Multiple myeloma and lymphoma cell lines: RPMI8226 (multiple myeloma), purchased from Fuxiang Bio-tech Co. Ltd., Shanghai, China.
(§1) Reagents: the same as in Example 5.
Obtaining 6000 well-growing leukemia cells and inoculating them into wells of a 96-well cell culture plate. The culture medium is a 1640 cell culture medium containing 10% fetal bovine serum. After adding the tetrandrine derivatives of different concentrations and mixing uniformly, placing the plate in a carbon dioxide cell incubator (5% CO2) at 37° C. and incubated for 72 hours. Then the viable cell concentration is determined by the MTT method.

[2] = test system: CaES-17 (esophageal cancer cell); test: Solid tumor cell growth inhibition, MTT, 72 h (Example 7); type: cell-based, human; details: Homo sapiens, CaEs17; 72 h, MTT, CAES-17
Procedure: (§2) Human solid tumor cell lines: Hep-2 (laryngeal carcinoma), A549 (human lung cancer), CaES-17 (esophageal cancer cell), PC-3 (prostate cancer), CNE (nasopharyngeal carcinoma cell) and SK-OV-3 (ovarian cancer cell), all of which are purchased from China Center For Type Culture Collection; RKO (human colon adenocarcinoma cell), MGC 803 (human gastric cancer cell), MG63 (osteosarcoma), and U87 MG (malignant glioma cell), all of which are purchased from Fuxiang Bio-tech Co. Ltd., Shanghai, China; PANC-1 (pancreatic cancer), Huh? (human liver cancer cell), Becap37 (human breast cancer cell), and Hela (human cervical cancer cell), all of which are donated by Cancer Research Institute of Zhejiang University, China.
as §1
(§3) Obtaining 4000 well-growing human solid tumor cells and inoculating them into wells of a 96-well cell culture plate. The culture medium is DMEM High Glucose cell culture medium containing 10% fetal bovine serum. The plate is placed in a carbon dioxide cell incubator (5% CO2) at 37° C. and incubated for 24 hours. After been added with tetrandrine derivatives of different concentration and mixing uniformly, the plate is placed in a carbon dioxide cell incubator (5% CO2) at 37° C. and incubated for 72 hours. Then the viable cell concentration is determined by the MTT method and the cell viability (%) after drug treatment is calculated. In this experiment, the cell viability of control group (not treated with any compound) is set as 100%.

[3] = test system: PANC-1 (pancreatic cancer); test: as above; type: cell-based, human; details: Homo sapiens; 72 h, MTT, PANC-1
Procedure: as §2, §1, §3

[4] = test system: PC-3 (prostate cancer); test: as above; type: cell-based, human; details: Homo sapiens; 72 h, MTT, PC-3
Procedure: as §2, §1, §3

[5] = test system: MG63 (osteosarcoma); test: as above; type: cell-based, human; details: Homo sapiens; 72 h, MTT, MG-63
Procedure: as §2, §1, §3

[6] = test system: Kasumi-1 (acute myeloid leukemia M2 type, AML-M2); test: Leukemia cell growth inhibition, MTT, 72 h (Example 5); type: cell-based, human; details: Homo sapiens, Kasumi 1
From the text: (§4) Leukemia cell lines: leukemia cell lines: K562/adr (drug-resistant, chronic myeloid leukemia, CML), NB4 (acute promyelocytic leukemia, AML), Kasumi-1 (acute myeloid leukemia M2 type, AML-M2), Jurkat (acute lymphoblastic leukemia, ALL), all of which are donated by Cancer Research Institute of Zhejiang University, China; and H9 (acute lymphoblastic leukemia, ALL), which is purchased from China Center for Type Culture Collection.
(§5) Reagents: The standard sample of tetrandrine (TTD) is purchased from Ci Yuan Biotechnology Co., Ltd., Shaanxi, China; and the 5-substituted tetrandrine derivatives of the present invention.
(§6) Obtaining 6000 well-growing leukemia cells and inoculating them into wells of a 96-well cell culture plate. The culture medium is a 1640 cell culture medium containing 10% fetal bovine serum. After adding the tetrandrine derivatives of different concentrations and mixing uniformly, placing the plate in a carbon dioxide cell incubator (5% CO2) at 37° C. and incubating for 72 hours. Then the viable cell concentration is determined by the MTT method.

[7] = test system: H9 (acute lymphoblastic leukemia, ALL); test: as above; type: cell-based, human; details: Homo sapiens; 72 h, MTT
From the text: as §4, §5, §6

[8] = test system: Jurkat (acute lymphoblastic leukemia, ALL); test: as above; type: cell-based, human; details: Homo sapiens, Jurkat; 72 h, MTT
From the text: as §4, §5, §6

[9] = test system: K562/adr (drug-resistant, chronic myeloid leukemia, CML); test: as above; type: cell-based, human; details: Homo sapiens, K562/Adr; 72 h, MTT
From the text: as §4, §5, §6

[10] = test system: Huh7 (human liver cancer cell); test: Solid tumor cell growth inhibition, MTT, 72 h (Example 7); type: cell-based; details: Homo sapiens; 72 h, MTT, Huh-7
Procedure: as §2, §1, §3

[11] = test system: Becap37 (human breast cancer cell); test: as above; type: cell-based; details: Homo sapiens; 72 h, MTT, Becap-37
Procedure: as §2, §1, §3

[12] = test system: MGC 803 (human gastric cancer cell); test: as above; type: cell-based; details: Homo sapiens
Procedure: as §2, §1, §3

[13] = test system: A549 (human lung cancer); test: as above; type: cell-based; details: Homo sapiens; 72 h, MTT, A549
Procedure: as §2, §1, §3

Row | Structure (SMILES) | IC50 [1] | IC90 [1] | IC50 [2] | IC90 [2] | IC50 [3] | IC90 [3] | IC50 [4] | IC90 [4] | IC50 [5] | IC90 [5] | IC50 [6] | IC90 [6] | IC50 [7] | IC90 [7] | IC50 [8] | IC90 [8] | IC50 [9] | IC90 [9] | IC50 [10] | IC90 [10] | also measured
1 | COc1ccc2cc1Oc1ccc(cc1)C[C@H]1c3cc(c(OC)cc3CCN1C)Oc1c(OC)c(OC)c(COCc3ccsc3)c3c1[C@H](C2)N(C)CC3 [BS-TE-415] | 0.14 µg/mL (≈ 0.187 µM) | 0.89 µg/mL (≈ 1.19 µM) | 1.74 µg/mL (≈ 2.32 µM) | 5.98 µg/mL (≈ 7.98 µM) | 2.76 µg/mL (≈ 3.69 µM) | 4.9 µg/mL (≈ 6.54 µM) | 3.5 µg/mL (≈ 4.67 µM) | 5.76 µg/mL (≈ 7.69 µM) | 1.31 µg/mL (≈ 1.75 µM) | 4.75 µg/mL (≈ 6.34 µM) | 1.95 µg/mL (≈ 2.6 µM) | 6.41 µg/mL (≈ 8.56 µM) | 1.71 µg/mL (≈ 2.28 µM) | 2.5 µg/mL (≈ 3.34 µM) | 2.22 µg/mL (≈ 2.96 µM) | 5.71 µg/mL (≈ 7.62 µM) | 0.57 µg/mL (≈ 0.761 µM) | 2.06 µg/mL (≈ 2.75 µM) | 1.09 µg/mL (≈ 1.46 µM) | 1.91 µg/mL (≈ 2.55 µM) | IC50 [11]: 1.9 µg/mL (≈ 2.54 µM); IC90 [11]: 3.31 µg/mL (≈ 4.42 µM); IC50 [12]: 1.06 µg/mL (≈ 1.42 µM); IC90 [12]: 1.9 µg/mL (≈ 2.54 µM); IC50 [13]: 2.44 µg/mL (≈ 3.26 µM); IC90 [13]: 5.61 µg/mL (≈ 7.49 µM)
2 | CCOCc1c2c3c(c(OC)c1OC)Oc1cc4c(cc1OC)CCN(C)[C@H]4Cc1ccc(cc1)Oc1cc(ccc1OC)C[C@@H]3N(C)CC2 [BS-TE-419] | 0.28 µg/mL (≈ 0.411 µM) | 2.09 µg/mL (≈ 3.07 µM) | 4.98 µg/mL (≈ 7.31 µM) | 18.4 µg/mL (≈ 27.1 µM) | 5.99 µg/mL (≈ 8.8 µM) | 9.31 µg/mL (≈ 13.7 µM) | 6.67 µg/mL (≈ 9.8 µM) | 10.5 µg/mL (≈ 15.4 µM) | 3.07 µg/mL (≈ 4.51 µM) | 9.69 µg/mL (≈ 14.2 µM) | 3.62 µg/mL (≈ 5.32 µM) | 11.8 µg/mL (≈ 17.4 µM) | 4.64 µg/mL (≈ 6.82 µM) | 7.26 µg/mL (≈ 10.7 µM) | 4.18 µg/mL (≈ 6.14 µM) | 10.3 µg/mL (≈ 15.2 µM) | 1.42 µg/mL (≈ 2.09 µM) | 5.71 µg/mL (≈ 8.39 µM) | 2.54 µg/mL (≈ 3.73 µM) | 6.16 µg/mL (≈ 9.05 µM) | IC50 [11]: 4.22 µg/mL (≈ 6.2 µM); IC90 [11]: 6.88 µg/mL (≈ 10.1 µM); IC50 [12]: 5.16 µg/mL (≈ 7.58 µM); IC90 [12]: 7.5 µg/mL (≈ 11 µM); IC50 [13]: 5.61 µg/mL (≈ 8.24 µM); IC90 [13]: 9.75 µg/mL (≈ 14.3 µM)
3 | COc1ccc2cc1Oc1ccc(cc1)C[C@H]1c3cc(c(OC)cc3CCN1C)Oc1c(OC)c(OC)c(COCCn3ccnc3)c3c1[C@H](C2)N(C)CC3 [BS-TE-418] | 0.15 µg/mL (≈ 0.201 µM) | 2.12 µg/mL (≈ 2.84 µM) | 1.71 µg/mL (≈ 2.29 µM) | 9.9 µg/mL (≈ 13.3 µM) | 4.57 µg/mL (≈ 6.12 µM) | 9.5 µg/mL (≈ 12.7 µM) | 4.98 µg/mL (≈ 6.67 µM) | 9.43 µg/mL (≈ 12.6 µM) | 1.48 µg/mL (≈ 1.98 µM) | 4.45 µg/mL (≈ 5.96 µM) | 1.46 µg/mL (≈ 1.95 µM) | 7.46 µg/mL (≈ 9.99 µM) | 2.38 µg/mL (≈ 3.19 µM) | 5 µg/mL (≈ 6.69 µM) | 2.98 µg/mL (≈ 3.99 µM) | 13.8 µg/mL (≈ 18.5 µM) | 1.53 µg/mL (≈ 2.05 µM) | 3.91 µg/mL (≈ 5.23 µM) | 3.08 µg/mL (≈ 4.12 µM) | 5.77 µg/mL (≈ 7.73 µM) | IC50 [11]: 1.98 µg/mL (≈ 2.65 µM); IC90 [11]: 4.4 µg/mL (≈ 5.89 µM); IC50 [12]: 4.4 µg/mL (≈ 5.89 µM); IC90 [12]: 6.85 µg/mL (≈ 9.17 µM); IC50 [13]: 4.5 µg/mL (≈ 6.02 µM); IC90 [13]: 11 µg/mL (≈ 14.8 µM)
